# Columns and labels:
# [1] = test system: cupgrass, woolly; assay: Test C preemergence; type: in vivo, Eriochloa villosa; conditions: for Cupgrass, Woolly plant response rating: preemergence, scale 0 (no effect) to 100 (complete control); for Plant response rating, Cupgrass, Woolly: Preemergence, 31 g ai/ha, scale 0 to 100, 0 no effect, 100 complete control
# Source text: (§1) Seeds of plant species selected from blackgrass (Alopecurus myosuroides), Italian ryegrass (Lolium multiflorum), wheat, winter (winter wheat, Triticum aestivum), galium (catchweed bedstraw, Galium aparine), corn (Zea mays), large (Lg) crabgrass (Digitaria sanguinalis), giant foxtail (Setaria faberii), johnsongrass (Sorghum halepense), lambsquarters (Chenopodium album), morningglory (Ipomoea coccinea), yellow nutsedge (Cyperus esculentus), pigweed (Amaranthus retroflexus), ragweed (common ragweed, Ambrosia elatior), soybean (Glycine max), barnyardgrass (Echinochloa crus-galli), oilseed rape (Brassica napus), waterhemp (common waterhemp, Amaranthus rudis), kochia (Kochia scoparia), wild oat (Avena fatua), surinam grass (Brachiaria decumbens), foxtail, green (green foxtail, Setaria viridis), goosegrass (Eleusine indica), bromegrass, downy (downy bromegrass, Bromus tectorum), nightshade (eastern black nightshade, Solanum ptycanthum), cocklebur (common cocklebur, Xanthium strumarium), cupgrass, woolly (woolly cupgrass, Eriochloa villosa), bermudagrass (Cynodon dactylon), sunflower, (common oilseed sunflower, Helianthus annuus), Russian thistle (Salsola kali), and velvetleaf (Abutilon theophrasti) were planted into a blend of loam soil and sand and treated preemergence with test chemicals formulated in a non-phytotoxic solvent mixture which included a surfactant.
# (§2) At the same time, plants selected from these crop and weed species and also barley, winter (winter barley, Hordeum vulgare), windgrass (Apera spica-venti), chickweed (common chickweed, Stellaria media), deadnettle (henbit deadnettle, Lamium amplexicaule), and canarygrass (littleseed canarygrass, Phalaris minor) were planted in pots containing Redi-Earth® planting medium (Scotts Company, 14111 Scottslawn Road, Marysville, Ohio 43041) comprising spaghnum peat moss, vermiculite, wetting agent and starter nutrients and treated with postemergence applications of test chemicals formulated in the same manner. Plants ranged in height from 2 to 18 cm (1- to 4-leaf stage) for postemergence treatments. Treated plants and controls were maintained in a greenhouse for 13 to 15 days, after which time all species were compared to controls and visually evaluated. Plant response ratings, summarized in Table C, are based on a scale of 0 to 100 where 0 is no effect and 100 is complete control. A dash (-) response means no test result.
# [2] = test system: cocklebur; assay: Test C preemergence; type: in vivo, Xanthium strumarium; conditions: for Cocklebur plant response rating: preemergence, scale 0 (no effect) to 100 (complete control); for Plant response rating, Cocklebur: Preemergence, 31 g ai/ha, scale 0 to 100, 0 no effect, 100 complete control
# Source text: as §1, §2
# [3] = test system: surinam grass; assay: Test C preemergence; type: in vivo, Brachiaria decumbens; conditions: for Surinam Grass plant response rating: preemergence, scale 0 (no effect) to 100 (complete control); for Plant response rating, Surinam Grass: Preemergence, 31 g ai/ha, scale 0 to 100, 0 no effect, 100 complete control
# Source text: as §1, §2
# [4] = test system: Russian thistle; assay: Test D preemergence; type: in vivo, Salsola kali; design: key: 0 = no effect, 100 = complete control
# Source text: Seeds of plant species selected from bluegrass (annual bluegrass, Poa annua), blackgrass (Alopecurus myosuroides), canarygrass (littleseed canarygrass, Phalaris minor), chickweed (common chickweed, Stellaria media), galium (catchweed bedstraw, Galium aparine), bromegrass, downy (downy bromegrass, Bromus tectorum), field poppy (Papaver rhoeas), field violet (Viola arvensis), green foxtail (Setaria viridis), deadnettle (henbit deadnettle, Lamium amplexicaule), Italian ryegrass (Lolium multiflorum), kochia (Kochia scoparia), lambsquarters (Chenopodium album), oilseed rape (Brassica napus), pigweed (Amaranthus retroflexus), chamomile (scentless chamomile, Matricaria inodora), Russian thistle (Salsola kali), speedwell (bird's-eye speedwell, Veronica persica), spring barley (Hordeum vulgare), spring wheat (Triticum aestivum), wild buckwheat (Polygonum convolvulus), wild mustard (Sinapis arvensis), wild oat (Avena fatua), wild radish (Raphanus raphanistrum), windgrass (Apera spica-venti), winter barley (Hordeum vulgare), and winter wheat (Triticum aestivum) were planted into a silt loam soil and treated preemergence with test chemicals formulated in a non-phytotoxic solvent mixture which included a surfactant.
# At the same time, these species were planted in pots containing Redi-Earth® planting medium (Scotts Company, 14111 Scottslawn Road, Marysville, Ohio 43041) comprising spaghnum peat moss, vermiculite, wetting agent and starter nutrients and treated with postemergence applications of the test chemicals formulated in the same manner. Plants ranged in height from 2 to 18 cm (1- to 4-leaf stage). Treated plants and controls were maintained in a controlled growth environment for 7 to 21 days after which time all species were compared to controls and visually evaluated. Plant response ratings, summarized in Table D, are based on a scale of 0 to 100 where 0 is no effect and 100 is complete control. A dash (-) response means no test result.
# [5] = test system: nightshade; assay: Test C preemergence; type: in vivo, Solanum ptycanthum; conditions: for Nightshade plant response rating: preemergence, scale 0 (no effect) to 100 (complete control); for Plant response rating, Nightshade: Preemergence, 31 g ai/ha, scale 0 to 100, 0 no effect, 100 complete control
# Source text: as §1, §2
# [6] = test system: cupgrass, woolly; assay: Test C postemergence; type: in vivo, Eriochloa villosa; conditions: for Plant response rating (0 to 100), Cupgrass, Woolly: postemergence; for Plant response rating, Cupgrass, Woolly: Postemergence, scale 0 to 100 (0 no effect, 100 complete control)
# Source text: as §1, §2
# [7] = test system: bermudagrass; assay: Test C postemergence; type: in vivo, Cynodon dactylon; conditions: for Plant response rating (0 to 100), Bermudagrass: postemergence; for Plant response rating, Bermudagrass: Postemergence, scale 0 to 100 (0 no effect, 100 complete control)
# Source text: as §1, §2
# [8] = test system: barley, winter; assay: Test C postemergence; type: in vivo, Hordeum vulgare; conditions: for Plant response rating (0 to 100), Barley: postemergence; for Plant response rating, Barley: Postemergence, scale 0 to 100 (0 no effect, 100 complete control)
# Source text: as §1, §2
# [9] = test system: canarygrass; assay: Test C postemergence; type: in vivo, Phalaris minor; conditions: for Plant response rating (0 to 100), Canarygrass: postemergence; for Plant response rating, Canarygrass: Postemergence, scale 0 to 100 (0 no effect, 100 complete control)
# Source text: as §1, §2
# [10] = test system: cocklebur; assay: Test C postemergence; type: in vivo, Xanthium strumarium; conditions: for Plant response rating (0 to 100), Cocklebur: postemergence; for Plant response rating, Cocklebur: Postemergence, scale 0 to 100 (0 no effect, 100 complete control)
# Source text: as §1, §2
# [11] = test system: bromegrass, downy; assay: Test C postemergence; type: in vivo, Bromus tectorum; conditions: for Plant response rating (0 to 100), Bromegrass, Downy: postemergence; for Plant response rating, Bromegrass, Downy: Postemergence, scale 0 to 100 (0 no effect, 100 complete control)
# Source text: as §1, §2
# [12] = 31 g ai/ha, scale 0 (no effect) to 100 (complete control)
smiles,measurement,setting,value
"FC(F)(F)c1cnn(-c2ccccc2Oc2ncc(Br)cn2)c1 [Compound 18, 5-bromo-2-[2-[4-(trifluoromethyl)-1H-pyrazol-1-yl]phenoxy]pyrimidine]","Cupgrass, Woolly plant response rating",[1]; 62 g ai/ha,55
same,"Cupgrass, Woolly plant response rating",[1]; 125 g ai/ha,98
same,"Cupgrass, Woolly plant response rating",[1]; 250 g ai/ha,100
same,"Plant response rating, Cupgrass, Woolly",[1],40
same,Cocklebur plant response rating,[2]; 62 g ai/ha,0
same,Cocklebur plant response rating,[2]; 250 g ai/ha,15
same,Surinam Grass plant response rating,[3]; 62 g ai/ha,30
same,Surinam Grass plant response rating,[3]; 125 g ai/ha,100
same,Surinam Grass plant response rating,[3]; 250 g ai/ha,100
same,"Plant response rating, Surinam Grass",[3],20
same,"Plant response rating, Russian Thistle",[4]; [12],10
same,"Plant response rating, Russian Thistle","[4]; 62 g ai/ha, scale 0-100",25
same,"Plant response rating, Russian Thistle","[4]; 125 g ai/ha, scale 0-100",40
same,"Plant response rating, Russian Thistle","[4]; 250 g ai/ha, scale 0-100",95
same,Nightshade plant response rating,[5]; 62 g ai/ha,30
same,Nightshade plant response rating,[5]; 125 g ai/ha,80
same,Nightshade plant response rating,[5]; 250 g ai/ha,95
FC(F)(F)c1cnn(-c2ccccc2Oc2ncc(Cl)cn2)c1 [Compound 16],"Cupgrass, Woolly plant response rating",[1]; 62 g ai/ha,90
same,"Cupgrass, Woolly plant response rating",[1]; 125 g ai/ha,98
same,"Cupgrass, Woolly plant response rating",[1]; 250 g ai/ha,98
same,"Plant response rating, Cupgrass, Woolly",[1],75
same,"Plant response rating (0 to 100), Cupgrass, Woolly",[6]; 125 g ai/ha,20
same,"Plant response rating (0 to 100), Cupgrass, Woolly",[6]; 250 g ai/ha,30
same,"Plant response rating, Cupgrass, Woolly","[6]; 31 g ai/ha, 13 to 15 days",5
same,"Plant response rating, Cupgrass, Woolly",[6]; 62 g ai/ha,15
same,"Plant response rating (0 to 100), Bermudagrass",[7]; 125 g ai/ha,50
same,"Plant response rating (0 to 100), Bermudagrass",[7]; 250 g ai/ha,55
same,"Plant response rating, Bermudagrass","[7]; 31 g ai/ha, 13 to 15 days",10
same,"Plant response rating, Bermudagrass",[7]; 62 g ai/ha,15
same,"Plant response rating (0 to 100), Barley",[8]; 125 g ai/ha,10
same,"Plant response rating (0 to 100), Barley",[8]; 250 g ai/ha,35
same,"Plant response rating, Barley","[8]; 31 g ai/ha, 13 to 15 days",0
same,"Plant response rating, Barley",[8]; 62 g ai/ha,5
same,Cocklebur plant response rating,[2]; 62 g ai/ha,5
same,Cocklebur plant response rating,[2]; 125 g ai/ha,5
same,Cocklebur plant response rating,[2]; 250 g ai/ha,20
same,"Plant response rating, Cocklebur",[2],0
same,"Plant response rating (0 to 100), Canarygrass",[9]; 125 g ai/ha,60
same,"Plant response rating (0 to 100), Canarygrass",[9]; 250 g ai/ha,80
same,"Plant response rating, Canarygrass","[9]; 31 g ai/ha, 13 to 15 days",10
same,"Plant response rating, Canarygrass",[9]; 62 g ai/ha,30
same,Surinam Grass plant response rating,[3]; 62 g ai/ha,100
same,Surinam Grass plant response rating,[3]; 125 g ai/ha,100
same,Surinam Grass plant response rating,[3]; 250 g ai/ha,100
same,"Plant response rating, Surinam Grass",[3],25
same,"Plant response rating (0 to 100), Cocklebur",[10]; 250 g ai/ha,80
same,"Plant response rating, Cocklebur","[10]; 31 g ai/ha, 13 to 15 days",50
same,"Plant response rating, Cocklebur",[10]; 62 g ai/ha,55
same,"Plant response rating (0 to 100), Bromegrass, Downy",[11]; 125 g ai/ha,5
same,"Plant response rating (0 to 100), Bromegrass, Downy",[11]; 250 g ai/ha,5
same,"Plant response rating, Bromegrass, Downy","[11]; 31 g ai/ha, 13 to 15 days",0
same,"Plant response rating, Bromegrass, Downy",[11]; 62 g ai/ha,5
same,Nightshade plant response rating,[5]; 62 g ai/ha,65
same,Nightshade plant response rating,[5]; 125 g ai/ha,80
same,Nightshade plant response rating,[5]; 250 g ai/ha,98
same,"Plant response rating, Nightshade",[5],20
"Clc1cnc(Oc2ccccc2-n2cc(Br)cn2)nc1 [Compound 7, 2-[2-(4-bromo-1H-pyrazol-1-yl)phenoxy]-5-chloropyrimidine]","Cupgrass, Woolly plant response rating",[1]; 62 g ai/ha,55
same,"Cupgrass, Woolly plant response rating",[1]; 125 g ai/ha,98
same,"Cupgrass, Woolly plant response rating",[1]; 250 g ai/ha,98
same,"Plant response rating, Cupgrass, Woolly",[1],15
same,"Plant response rating (0 to 100), Cupgrass, Woolly",[6]; 125 g ai/ha,25
same,"Plant response rating (0 to 100), Cupgrass, Woolly",[6]; 250 g ai/ha,25
same,"Plant response rating, Cupgrass, Woolly","[6]; 31 g ai/ha, 13 to 15 days",10
same,"Plant response rating, Cupgrass, Woolly",[6]; 62 g ai/ha,20
same,"Plant response rating (0 to 100), Bermudagrass",[7]; 125 g ai/ha,15
same,"Plant response rating (0 to 100), Bermudagrass",[7]; 250 g ai/ha,70
same,"Plant response rating, Bermudagrass","[7]; 31 g ai/ha, 13 to 15 days",0
same,"Plant response rating, Bermudagrass",[7]; 62 g ai/ha,5
same,"Plant response rating (0 to 100), Barley",[8]; 125 g ai/ha,10
same,"Plant response rating (0 to 100), Barley",[8]; 250 g ai/ha,15
same,"Plant response rating, Barley","[8]; 31 g ai/ha, 13 to 15 days",0
same,"Plant response rating, Barley",[8]; 62 g ai/ha,0
same,Cocklebur plant response rating,[2]; 62 g ai/ha,5
same,Cocklebur plant response rating,[2]; 125 g ai/ha,5
same,Cocklebur plant response rating,[2]; 250 g ai/ha,5
same,"Plant response rating, Cocklebur",[2],0
same,"Plant response rating (0 to 100), Canarygrass",[9]; 125 g ai/ha,30
same,"Plant response rating (0 to 100), Canarygrass",[9]; 250 g ai/ha,80
same,"Plant response rating, Canarygrass","[9]; 31 g ai/ha, 13 to 15 days",5
same,"Plant response rating, Canarygrass",[9]; 62 g ai/ha,10
same,Surinam Grass plant response rating,[3]; 62 g ai/ha,5
same,Surinam Grass plant response rating,[3]; 125 g ai/ha,30
same,Surinam Grass plant response rating,[3]; 250 g ai/ha,85
same,"Plant response rating, Surinam Grass",[3],0
same,"Plant response rating (0 to 100), Cocklebur",[10]; 125 g ai/ha,55
same,"Plant response rating (0 to 100), Cocklebur",[10]; 250 g ai/ha,80
same,"Plant response rating, Cocklebur","[10]; 31 g ai/ha, 13 to 15 days",35
same,"Plant response rating, Cocklebur",[10]; 62 g ai/ha,45
same,"Plant response rating, Russian Thistle",[4]; [12],0
same,"Plant response rating, Russian Thistle","[4]; 62 g ai/ha, scale 0-100",0
same,"Plant response rating, Russian Thistle","[4]; 125 g ai/ha, scale 0-100",0
same,"Plant response rating, Russian Thistle","[4]; 250 g ai/ha, scale 0-100",0
same,"Plant response rating (0 to 100), Bromegrass, Downy",[11]; 125 g ai/ha,10
same,"Plant response rating (0 to 100), Bromegrass, Downy",[11]; 250 g ai/ha,10
same,"Plant response rating, Bromegrass, Downy","[11]; 31 g ai/ha, 13 to 15 days",5
same,"Plant response rating, Bromegrass, Downy",[11]; 62 g ai/ha,5
same,Nightshade plant response rating,[5]; 62 g ai/ha,95
same,Nightshade plant response rating,[5]; 125 g ai/ha,95
same,Nightshade plant response rating,[5]; 250 g ai/ha,98
same,"Plant response rating, Nightshade",[5],80

# — patent US9695155B2, “Herbicidal substituted pyrimidinyloxy benzene compounds” (E. I. DU PONT DE NEMOURS AND COMPANY, priority 2013, dated 2017)
